This passage reports inhibition and IC50 results from patent US20150166505A1, “PYRIDINYL-SUBSTITUTED PYRAZOLYL CARBOXAMIDES” (GRÜNENTHAL GMBH, priority 2013, published 2015).

The target of assay [1] is T1, CRAC channel (endogenous SOC in HEK293 cells) (Homo sapiens, UniProt Q96D31).
T1 construct: endogenous in cells; host or cells: HEK293 (ECACC)
Put plainly: HEK Calcium Influx Assay (FLIPR). It is filed as cell-based. How it is done: The effect of compounds of the invention on intracellular [Ca^2+] was tested in the HEK293 cell line (ECACC). HEK293 cells were cultured in DMEM/F12/Glutamax (Gibco) containing 10% FCS (Gibco), and maintained at 37° C., 5% CO2. Cell were split twice a week [3*10^6 (Mon-Thu) and 1*10^6 (Thu-Mon) cells/50 ml medium in T-175 ZK culture flasks, respectively]. Twenty four hours pre-experiment, cells were seeded on 96 well plates (Poly-D-Lysine 96well Black/Clear Plate, BD Biocoat REF 356640) at a density of 40,000 cells/well in DMEM/F12 (Gibco) containing 10% FCS (Gibco), and maintained at 37° C., 5% CO2. Prior to store-depletion, cell culture medium was removed and cells were loaded with the a Calcium-sensitive fluorescent dye comprised within the Calcium-4-assay kit (Molecular Devices) in nominally Ca^2+-free HBS buffer (140 mM NaCl, 4 mM KCl, 0.2 mM MgCl2, 11 mM D-glucose, and 10 mM HEPES, pH 7.4) according to manufacturer's instruction for 60 min at 37° C., 5% CO2. Passive depletion of intracellular Ca^2+-stores was then triggered by employing the SERCA inhibitor thapsigargin (2 μM final) for 10 min in the dark (RT). To prevent immediate Ca^2+-entry via the activated Store-operated channels (SOCs), cells were maintained in Ca^2+-free HBS buffer comprising 100 μM EGTA during store-depletion. Intracellular changes in [Ca^2+] were subsequently monitored with the FLIPR device (Molecular Devices). In brief, baseline imaging post-store depletion was allowed for 1 min before adjusting the extracellular buffer to 3 mM CaCl2. Increases in intracellular [Ca^2+] due to pre-activated SOC channels were monitored for 15 min until intracellular Ca^2+ levels had declined into a steady-state. Finally, compounds were administered and Ca^2+ signals were recorded for additional 10 min. Inhibition of endogenous SOC in HEK293 cells was quantified employing the average Ca^2+ signal measured from 9.5-10 min post-administration. Zero percent inhibition (MAX) was defined as the Ca^2+ signal recorded from wells to which DMSO-only had been added instead of compound. Hundred percent inhibition (MIN) was defined as the signal obtained from wells in which cells haven't been treated with TG prior to Ca^2+ addition and to which DMSO-only had been added instead of compound. For routine IC50 determinations of compounds, 8 concentrations of a serial dilution (1:3.16) were tested, starting off from 10 μM. Reliable IC50's could consequently be determined only, if they were at least sub 2.5-3 μM.

Assay [2] concerns Interleukin-2 (IL-2) production/release in Jurkat T cell line. As to the kind of experiment: Jurkat IL-2 Production Assay. The format is cell-based. To be noted: Homo sapiens; Jurkat T cells, PHA stimulation 22 hours. As to the method:
Jurkat IL-2 Production Assay
The effect of compounds of the invention on Interleukin-2 (IL-2) production/release was tested in the Jurkat T cell line (ECACC) clone E6-1. Jurkat T cells were cultured in DMEM/F12/Glutamax (Gibco) containing 10% FCS (Gibco), and maintained at 37° C., 5% CO2. Cell were split twice a week [5*10^6 (Mon-Thu) and 1*10^7 (Thu-Mon) cells/50 ml medium in T-175 ZK culture flasks, respectively]. Prior to experiment, cells were seeded on 96 well plates (Cellstar 96 Well; Cat No. 655180, Greiner bio-one) at a density of 5*10^5 cells/well in DMEM/F12/Glutamax (Gibco) containing 10% FCS (Gibco), and incubated for 60 min at 37° C., 5% CO2. Subsequently, compounds were added and cells were allowed to incubate for 30 min at 37° C., 5% CO2. Cells were then stimulated with 15 μg/ml Phytohemagglutinin (PHA; Sigma) for 22 hours at 37° C., 5% CO2. Before sampling of the supernatants, cells were spun down (200*g/5 min/RT). The amount of IL-2 released into the supernatant was quantified with the human IL-2 AlphaLisa kit (Perkin Elmer) according to manufacturer's instructions. Luminescence proximity measurements were carried out in the Synergy H4 reader (BioTek) employing the fluorescence setting of the reader (ex: 680/30 nm; em: 620/40 nm). Inhibition of IL-production/release in/from Jurkat T cells was quantified as follows: Zero percent inhibition (MAX) was defined as the [IL-2] determined in supernatants derived from cells to which PHA & DMSO-only had been added instead of compound. Hundred percent inhibition (MIN) was defined as the [IL-2] determined in supernatants derived from cells that had been pre-treated with 1 μM CyclosporineA (Sigma) before the addition of 15 μg/ml PHA. For routine IC50 determinations of compounds, 8 concentrations of a serial dilution (1:3.16) were tested, starting off from 10 μM.

Where [3] appears, read: numeric values of Table 2, read-out: inhib. [@ 10 μM] FLIPR.
The mark [4] stands for this setting: thapsigargin store depletion, read-out: % inhib. [@ 10 μM] FLIPR.

Read-outs that look alike come from different tables or passages of the source.

T1 sequence (Q96D31 whole entry): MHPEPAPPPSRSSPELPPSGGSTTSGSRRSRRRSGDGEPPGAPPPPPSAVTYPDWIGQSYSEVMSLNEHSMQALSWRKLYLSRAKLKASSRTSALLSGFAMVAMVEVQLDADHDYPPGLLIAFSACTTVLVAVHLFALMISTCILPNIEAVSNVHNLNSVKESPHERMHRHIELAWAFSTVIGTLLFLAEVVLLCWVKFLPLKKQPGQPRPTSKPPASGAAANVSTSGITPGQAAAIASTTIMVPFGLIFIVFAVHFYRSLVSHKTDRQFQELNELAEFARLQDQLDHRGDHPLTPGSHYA

`Cc1cc(OC(F)(F)F)ncc1-c1cc(C(=O)Nc2c(F)cccc2F)nn1C` [Example 12, N-(2,6-Difluoro-phenyl)-1-methyl-5-[4-methyl-6-(trifluoromethyloxy)-pyridin-3-yl]-1H-pyrazole-3-carboxylic acid amide]: the results for the inhibition at 10 µM in assay [1] (setting [3]) and in assay [1] (setting [4]) were 92% and greater than 70%, respectively. Moreover, the IC50 in assay [2] is less than 0.5 µM.

Regarding `Cc1cc(OC(C)C)ncc1-c1cc(C(=O)Nc2c(F)cncc2F)nn1C` [Example 52, N-(3,5-Difluoro-pyridin-4-yl)-5-(6-isopropoxy-4-methyl-pyridin-3-yl)-1-methyl-1H-pyrazole-3-carboxylic acid amide], the IC50 in assay [2] fell in the range of 0.5 to 1 µM.

Regarding `COc1cc(C)c(-c2cc(C(=O)Nc3c(F)cccc3F)nn2C)cn1` [Example 58, N-(2,6-Difluoro-phenyl)-5-(6-methoxy-4-methyl-pyridin-3-yl)-1-methyl-1H-pyrazole-3-carboxylic acid amide], the 50% inhibitory concentration (IC50) in assay [2] is 1 to 5 µM.

Consider `CCOc1cc(OC)c(-c2cc(C(=O)Nc3c(F)cccc3F)nn2C)cn1` [Example 16, N-(2,6-Difluoro-phenyl)-5-(6-ethoxy-4-methoxy-pyridin-3-yl)-1-methyl-1H-pyrazole-3-carboxylic acid amide], for which, in assay [1] (setting [4]), the inhibition at 10 µM was greater than 70%. The IC50 in assay [2] was less than 0.5 µM.

With `Cc1cc(C(F)(F)F)ncc1-c1cc(C(=O)Nc2c(F)cccc2F)nn1C` [Example 60, N-(2,6-Difluoro-phenyl)-1-methyl-5-[4-methyl-6-(trifluoromethyl)-pyridin-3-yl]-1H-pyrazole-3-carboxylic acid amide], the inhibition at 10 µM was 100% in assay [1] (setting [3]) and greater than 70% in assay [1] (setting [4]). Moreover, the IC50 in assay [2] lay within 0.5 to 1 µM.

For the compound `Cc1cc(OCC2CCC2)ncc1-c1cc(C(=O)Nc2c(F)cccc2F)nn1C` [Example 18], the IC50 in assay [2] is 1 to 5 µM.

`Cc1cc(N(C)C)ncc1-c1cc(C(=O)Nc2c(F)cccc2F)nn1C` [Example 37, N-(2,6-Difluoro-phenyl)-5-(6-dimethylamino-4-methyl-pyridin-3-yl)-1-methyl-1H-pyrazole-3-carboxylic acid amide]: the inhibition at 10 µM in assay [1] (setting [3]) is 98%; in assay [1] (setting [4]), greater than 70%. The IC50 in assay [2] was in the range of 1 to 5 µM.

For the compound `CCOc1cc(OC2COC2)c(-c2cc(C(=O)Nc3c(F)cccc3F)nn2C)cn1` [Example 49, N-(2,6-Difluoro-phenyl)-5-[6-ethoxy-4-(oxetan-3-yloxy)-pyridin-3-yl]-1-methyl-1H-pyrazole-3-carboxylic acid amide], the inhibition at 10 µM in assay [1] (setting [4]) was 50 to 70%. In addition, the IC50 in assay [2] lay within 1 to 5 µM.

Consider `COc1cc(OC)c(-c2c(C)c(C(=O)Nc3cncc(F)c3C)nn2C)cn1` [Example 67, 5-(4,6-Dimethoxy-pyridin-3-yl)-N-(5-fluoro-4-methyl-pyridin-3-yl)-1,4-dimethyl-1H-pyrazole-3-carboxylic acid amide], for which the inhibition at 10 µM in assay [1] (setting [4]) is greater than 70%. In assay [2], the IC50 is 1 to 5 µM.

`CCOc1ncc(-c2cc(C(=O)Nc3c(F)cccc3F)nn2C)c(C)c1F` [Example 35, N-(2,6-Difluoro-phenyl)-5-(6-ethoxy-5-fluoro-4-methyl-pyridin-3-yl)-1-methyl-1H-pyrazole-3-carboxylic acid amide]: in assay [1] (setting [4]), the inhibition at 10 µM is less than 50%. Besides, the IC50 in assay [2] fell in the range of 1 to 5 µM.

For the compound `COc1cc(OC)c(-c2c(Cl)c(C(=O)Nc3c(F)cccc3F)nn2C)cn1` [Example 57, 4-Chloro-N-(2,6-difluoro-phenyl)-5-(4,6-dimethoxy-pyridin-3-yl)-1-methyl-1H-pyrazole-3-carboxylic acid amide], the inhibition at 10 µM in assay [1] (setting [4]) was greater than 70%. For the same compound, in assay [2], the IC50 lay within 1 to 5 µM.

Regarding `CCOc1cc(O)c(-c2cc(C(=O)Nc3c(F)cccc3F)nn2C)cn1` [Example 71, N-(2,6-Difluoro-phenyl)-5-(6-ethoxy-4-hydroxy-pyridin-3-yl)-1-methyl-1H-pyrazole-3-carboxylic acid amide], the inhibition at 10 µM in assay [1] (setting [4]) is less than 50%.

For `COc1cc(N(C)C)c(-c2cc(C(=O)Nc3c(F)cccc3F)nn2C)cn1` [Example 75, N-(2,6-Difluoro-phenyl)-5-(4-dimethylamino-6-methoxy-pyridin-3-yl)-1-methyl-1H-pyrazole-3-carboxylic acid amide], the 50% inhibitory concentration (IC50) in assay [2] lay in the range of 1 to 5 µM.

For `Cc1cc(COc2cc(C)c(-c3cc(C(=O)Nc4c(F)cccc4F)nn3C)cn2)no1` [Example 19, N-(2,6-Difluoro-phenyl)-1-methyl-5-[4-methyl-6-[(5-methyl-isoxazol-3-yl)-methoxy]-pyridin-3-yl]-1H-pyrazole-3-carboxylic acid amide], the inhibition at 10 µM in assay [1] (setting [3]) was 113%; in assay [1] (setting [4]), greater than 70%.

As to `COc1cc(C(F)(F)F)ncc1-c1cc(C(=O)Nc2c(F)cccc2F)nn1C` [Example 42, N-(2,6-Difluoro-phenyl)-5-[4-methoxy-6-(trifluoromethyl)-pyridin-3-yl]-1-methyl-1H-pyrazole-3-carboxylic acid amide], in assay [2], the IC50 was 0.5 to 1 µM.

On to `COc1cc(C2CC2)ncc1-c1cc(C(=O)Nc2c(F)cncc2F)nn1C` [Example 53, 5-(6-Cyclopropyl-4-methoxy-pyridin-3-yl)-N-(3,5-difluoro-pyridin-4-yl)-1-methyl-1H-pyrazole-3-carboxylic acid amide], for which, in assay [2], the IC50 is 0.5 to 1 µM.

For `Cn1nc(C(=O)Nc2c(F)cccc2F)cc1-c1nc(C(F)(F)F)ccc1C#N` [Example 72, 5-[3-Cyano-6-(trifluoromethyl)-pyridin-2-yl]-N-(2,6-difluoro-phenyl)-1-methyl-1H-pyrazole-3-carboxylic acid amide], the inhibition at 10 µM in assay [1] (setting [4]) was less than 50%.

As to `Cc1cc(C#N)ncc1-c1cc(C(=O)Nc2c(F)cccc2F)nn1C` [Example 41, 5-(6-Cyano-4-methyl-pyridin-3-yl)-N-(2,6-difluoro-phenyl)-1-methyl-1H-pyrazole-3-carboxylic acid amide], the inhibition at 10 µM in assay [1] (setting [4]) was less than 50%.

As for `COCc1cc(C)c(-c2cc(C(=O)Nc3c(F)cccc3F)nn2C)cn1` [Example 59, N-(2,6-Difluoro-phenyl)-5-[6-(methoxymethyl)-4-methyl-pyridin-3-yl]-1-methyl-1H-pyrazole-3-carboxylic acid amide], the figures for the inhibition at 10 µM in assay [1] (setting [3]) and in assay [1] (setting [4]) were 67% and 50 to 70%, respectively.

With `COc1cc(O)ncc1-c1cc(C(=O)Nc2c(F)cccc2F)nn1C` [Example 70, N-(2,6-Difluoro-phenyl)-5-(6-hydroxy-4-methoxy-pyridin-3-yl)-1-methyl-1H-pyrazole-3-carboxylic acid amide], the inhibition at 10 µM in assay [1] (setting [4]) was less than 50%.

`Cn1nc(C(=O)Nc2c(F)cccc2F)cc1-c1nc(C(C)(C)C)ccc1C#N` [Example 73, 5-(6-tert-Butyl-3-cyano-pyridin-2-yl)-N-(2,6-difluoro-phenyl)-1-methyl-1H-pyrazole-3-carboxylic acid amide]: the inhibition at 10 µM in assay [1] (setting [4]) was less than 50%.

The IC50 is the midpoint of a concentration-inhibition curve.
